Laboratory results: US11596716B2, “Compounds and matrices for use in bone growth and repair” (Human BioMolecular Research Institute, priority 2013, dated 2023)

Columns and labels:
[1] = system: hMSCs; test: TLR4/TLR3 mRNA expression ratio by qPCR in hMSCs; format: cell-based, human; conditions: 500 nM, 8 days
Description: TLRs are modulators of hMSC differentiation. TLRs (TLR1-10) mRNA could be detected by qPCR in hMSCs. TLR4 is a biomarker for osteogenesis and TLR3 is a biomarker for adipogenesis. […]

[2] = system: hMSCs; test: Transwell migration of hMSCs to calcium phosphate matrix; format: cell-based, human
Protocol: Human MSC migration to the site of bone injury is an important part of the repair process. […] After 8 hrs, compounds were washed off the cells and cells placed in a traditional transwell migration system. The top reservoir contained serum-free DMEM and the bottom reservoir contained DMEM plus 2% FBS. After incubation overnight, non-migrated cells were removed, migrated cells (stuck in the bottom chamber) were then fixed with 70% EtOH (40 mins) and total migrated cells were counted under a microscope after staining with 1 mg/mL of crystal violet (1 hr). hMSCs treated with compound 2 (500 nM, 8 hr) induced a 10-fold greater cell migration to the matrix than DMSO-pre-treated cells under the conditions described above. In a separate experiment, matrix that was pre-coated with compound 4 (as prepared in Example 5) was placed in the bottom chamber and migration of hMSCs from the top chamber was evaluated. Compound 4-coated matrix induced a 2-fold increase in cell migration to the matrix compared to DMSO-treated cells.
hMSC migration was analyzed by using calcium phosphate matrix that had been pre-adsorbed with compounds 1 or 2 (500 nM, as described in Example 5) and studied in the transwell system (2% serum, described above). Compound 1 and 2 induced 3.5-fold and 1.9-fold more cell migration than non-coated ceramic. While non-limiting, these examples show the utility of the approach for increased cell migration and localization to the calcium phosphate ceramic matrix when compounds of the disclosure are present. Use of compounds of Formula II, IV, and VI to pre-coat the ceramic and also pretreat the cells is also of utility.

[3] = system: hMSCs; test: Oil Red O staining (adipogenesis) in hMSCs; format: cell-based, human; conditions: for effect on adipogenesis, densitometry of cell culture images: 500 nM every 48 hr for 25 days, TCP 5 mg/mL; for adipogenesis (Oil Red O staining) compared to vehicle-treated hMSCs: presence or absence of matrix, 25 days
Protocol: Oil Red O Staining: Oil Red O (ORO, 1-(2,5-dimethyl-4-(2-5-dimethylphenyl) phenyldiazenyl) azonapthalen-2-ol) was used to stain for the presence of adipocytes. An ORO solution was prepared to afford a 0.03% final concentration in dH2O. hMSCs were cultured as described above for Alizarin Red Staining (Example 7) in 48-well plates. On day 25 of cell incubation, cells were fixed with 4% formaldehyde for 40 mins at room temperature. Cells were stained for 1 hr followed by washes with dH2O (1 mL) until the wash water was clear (without red elutes). Cell culture images were taken under a microscope and quantified by densitometry.

[4] = system: nude, immunodeficient Bg-Nu-XID female mice; test: Intramuscular osteoinduction: implants in biceps femoris of immunodeficient mice, histology after 8 weeks; format: in vivo
Protocol: Mice were divided into groups according to the experimental design: i) uninduced hMSCs that were treated with vehicle alone (i.e., 0.1% DMSO, final concentration) for 8 days then combined with TCP ceramic matrix, and ii) induced hMSCs that were treated with 3 (500 nM) in the presence of TCP ceramic matrix (5 mg/mL) for 8 days, and iii) TCP ceramic matrix (i.e. no cells) mock cultured for 8 days. The TCP ceramic matrix used was […] granules. […] MEM medium was added to existing PBS (pH 6.5) cell incubations to effect a 500 nM final concentration.
Isolation of Compound-Induced hMSCs and their Cryopreservation (FIG. 5, Steps 4-5). At the end of an 8-day cell culture period, the cells were washed three times with 1 ml PBS (50 mM, pH 7.4), and removed from the 6-well plate by trypsinization. For induced cells, the TCP granules that remained on the plate were retained. After three washes with PBS (50 mM, pH 7.4), cells were centrifuged at 1200× g for 3 min. The cell pellet was recombined with TCP ceramic taken from cell culture and the mixture was suspended in 1 mL freezing medium (MEM essential containing 20% FBS and 5% DMSO). Before cryopreservation of the cell-TCP mixture in liquid nitrogen, a 10 μl aliquot of each sample was taken and used to count the cells, or to confirm ALP functional activity and mRNA biomarker expression (i.e., Osteocalcin, Collagen I) in advance of implantation.
Preparation of Implants for Surgery (FIG. 5, Steps i and ii). On the day of surgery, implants comprised of either i) TCP ceramic matrix, ii) hMSCs (0.5 million) and 5 mg TCP ceramic matrix, or iii) compound-induced hMSCs (0.5 million) and 5 mg TCP ceramic matrix were prepared for transplantation. Frozen cell/ceramic suspensions were thawed and washed three times with PBS (50 mM, pH 7.4). All implants were combined with a bioadhesive just prior to implantation in mice. […]
Surgical Implantation of Compositions of the Invention (FIG. 5, Step iii). […] Mice were monitored throughout surgery and thereafter for maintenance of the surgical plane of anesthesia. […]

[5] = implants of hMSCs induced 8 days with compound (500 nM) and TCP ceramic matrix, intramuscular, mice, 8 weeks

Row | Compound | TLR4/TLR3 ratio, compound alone [1] | cell migration to matrix pre-adsorbed with compound versus non-coated ceramic ([2]; 500 nM, transwell, 2% serum) [fold] | effect on adipogenesis, densitometry of cell culture images [3] | adipogenesis (Oil Red O staining) compared to vehicle-treated hMSCs [3] | osteoid score (0-4), median and 75th percentile, versus non-induced hMSCs on TCP matrix or TCP matrix alone ([4]; blinded observers, H&E sections, 8 weeks post-implantation) | osteoid in the ROI relative to implants comprised of TCP alone (densitometry) [4, 5] [fold] | osteoid in the ROI relative to implants of non-induced hMSCs and TCP ceramic matrix (densitometry) [4, 5] [fold] | cell migration to compound-coated matrix compared to DMSO-treated cells ([2]; matrix pre-coated with compound in bottom chamber) [fold]
1 | CC(=O)N1c2ccc(C)cc2[C@H](Nc2ccc(C)cc2)C[C@@H]1C (relative stereo) [Compound 1, cis-1-acetyl-2,6-dimethyl-N-(p-methylphenyl)-1,2,3,4-tetrahydroquinolin-4-amine] | modest increase | 3.5 |  |  |  |  |  | 
2 | CC(C)[C@H](N)C(=O)Oc1ccc(C=CC(=O)C=C(O)C=Cc2ccc(OC(=O)[C@@H](N)C(C)C)cc2)cc1 [Compound 3, (2S,2′S)—O,O′-(3-hydroxy-5-oxohepta-1,3,6-triene-1,7-diyl)bis(4,1-phenylene) bis(2-amino-3-methylbutanoate)] | modest increase |  | modestly inhibitory to adipogenesis | no increase in adipogenesis | significantly (p<0.005) higher | 2.1 | 1.3 | 
3 | CC(C)[C@H](N)C(=O)Oc1ccc(/C=C/C(O)=C2\CCC/C(=C\c3ccc(OC(=O)[C@@H](N)C(C)C)cc3)C2=O)cc1 [Compound 4, 4-((1E,3Z)-3-(3-((E)-4-((L-valyl)oxy)benzylidene)-2-oxocyclohexylidene)-3-hydroxyprop-1-en-1-yl)phenyl L-valinate] |  |  | modestly inhibitory to adipogenesis | no increase in adipogenesis |  |  |  | 2
